The values below are quoted from earlier work in patent US20240216546A1, “MODEL OPTIMIZED DRUG AND DRUG COMBINATIONS FOR TREATING CANCERS” (My Personal Therapeutics, priority 2021, published 2024).

The subject of the data set is non-small cell lung cancer. The note with it: erlotinib in combination with first line chemotherapy (carboplatin and paclitaxel).
[1] abbreviates: patients with the KRAS mutation.

In the case of `C#Cc1cccc(Nc2ncnc3cc(OCCOC)c(OCCOC)cc23)c1` [erlotinib], the time-to-progression (group with wild-type KRAS) was 12 months. Also, under setting [1], the overall survival entry was “four” and the time to progression entry is given as “three”.
